Reference: US12297295B2, “Peptide for treating cancer” (Saint Leo University, priority 2019, dated 2025)
Where no end group is shown, it is not given here.

Experiments:
CMG helicase = biological target: T1, CMG helicase (Xenopus laevis, UniProt Q91876); assay: S phase arrested Xenopus egg extracts, chromatin RPA Western blot as readout for DNA helicase activity; format: biochemical; conditions: 250 μM peptide, 90 min incubation
T1 construct: from tissue; host or cells: S phase arrested Xenopus egg extracts (endogenous proteins on chromatin)
Protocol: The peptide of SEQ ID NO: 1 was synthesized using solid-phase synthesis. The product was purified using HPLC to a purity of about 99%. 250 μM of peptide Ex7 ([…]) (SEQ ID NO: 8), peptide 7N (circularized—KGEVLQMEDDLV) (SEQ ID NO: 9), peptide 7M (ISFQLMLCVLDYF) (SEQ ID NO: 1), or peptide 7C (IKLSPPMLLKEPYK) (SEQ ID NO: 10) were incubated in S phase arrested Xenopus egg extracts. Following a 90 min incubation, chromatin was isolated and probed by Western blotting for RPA protein as a readout for DNA helicase activity. Additionally, peptide 7MN (ISFQLML) (SEQ ID NO: 5), peptide 7MM (QLMLCVL) (SEQ ID NO: 2), and peptide 7MC (LCVLDYF) (SEQ ID NO: 6) were tested.
250 μM of each of peptides 7α (DLVISFQLMLCVLDYFIK) (SEQ ID NO: 14), 7α-ln (LVISFQLMLCVLDYFIK) (SEQ ID NO: 22), 7α-2n (VISFQLMLCVLDYFIK) (SEQ ID NO: 23), 7α-3n (ISFQLMLCVLDYFIK) (SEQ ID NO: 24), 7α-4n (SFQLMLCVLDYFIK) (SEQ ID NO: 25), 7α-5n (FQLMLCVLDYFIK) (SEQ ID NO: 26), 7α-6n (QLMLCVLDYFIK) (SEQ ID NO: 27), 7α-7n (LMLCVLDYFIK) (SEQ ID NO: 28), 7α-17c (DLVISFQLMLCVLDYF) (SEQ ID NO: 29), 7α-16c (DLVISFQLMLCVLDY) (SEQ ID NO: 30), 7α-15c (DVISFQLMLCVLD) (SEQ ID NO: 31), 7α-14c (DVISFQLMLCVL) (SEQ ID NO: 32), 7α-11c (DVISFQLML) (SEQ ID NO: 33) was incubated in S phase arrested Xenopus egg extracts. Following a 90 min incubation, chromatin was isolated and probed by Western blotting for RPA protein as a readout for DNA helicase activity.

[1] = test system: BT-549 breast cancer cells
Protocol: The effect of Peptides 7M and 7MM on BT-549 breast cancer cells (ATCC #HTB-122) was studied. Pierce Protein Transfection reagent (Thermo Scientific, 89850) was used to deliver peptide to the cultured cells. BT-549 breast cancer cells were transfected with 0.625-20 μM Peptide 7M or 1.25-10 μM Peptide 7MM for 3.5 hrs, incubated in a complete media for a duration of two doubling times (96 hours), and assessed for viability by using a CCK-8 colorimetric assay.
(§1) IC50 values were calculated from obtained equations that describe cell viability as a function of peptide concentration.

[2] = test system: HMEC primary mammary epithelial normal cells
Protocol: HMEC mammary epithelial cells (ATCC #PCS-600-010) were transfected with 1.25-20 μM peptide 7α for 3.5 hrs, incubated in a complete media for a duration of two doubling times, and assessed for viability by using a CCK-8 colorimetric assay (Dojindo Molecular Technologies, Inc.).
HMEC primary normal epithelial breast cells (ATCC #PCS-600-010) were transfected with 1.25-10 μM peptide 7MM for 3.5 hrs, incubated in a complete media for a duration of two doubling times, and assessed for viability by using a CCK-8 colorimetric assay (Dojindo Molecular Technologies, Inc.).
as §1

[3] = test system: M059J glioma cancer cells
Protocol: (§2) Pierce Protein Transfection reagent (Thermo Scientific, 89850) was used to deliver peptide to the cultured cells.
M059J glioma cancer cells (ATCC #CRL-2366) were transfected with 1.25-10 μM peptide 7α for 3.5 hrs, incubated in a complete media for a duration of two doubling times, and assessed for viability by using a CCK-8 colorimetric assay (Dojindo Molecular Technologies, Inc.).
M059J glioma cancer cells (ATCC #CRL-2366) were transfected with 1.25-10 μM peptide 7MM for 3.5 hrs, incubated in a complete media for a duration of two doubling times, and assessed for viability by using a CCK-8 colorimetric assay (Dojindo Molecular Technologies, Inc.).
as §1

[4] = test system: SVG p12 immortalized astroglia cells
Protocol: as §1

[5] = test system: THLE-3 immortalized normal liver cells
Protocol: as §1

[6] = test system: HLF normal primary lung fibroblasts
Protocol: The effect of peptide 7α of viability of HLF normal primary lung fibroblasts was studied. HLF normal primary lung fibroblasts (ATCC #PCS-201-013) were transfected with 1.25-10 μM peptide 7α for 3.5 hrs, incubated in a complete media for a duration of two doubling times, and assessed for viability by using a CCK-8 colorimetric assay (Dojindo Molecular Technologies, Inc.).
The effect of peptide 7MM of viability of normal lung cells was studied. HLF normal primary lung fibroblasts (ATCC #PC S-201-013) were transfected with 1.25-10 μM peptide 7MM for 3.5 hrs, incubated in a complete media for a duration of two doubling times, and assessed for viability by using a CCK-8 colorimetric assay (Dojindo Molecular Technologies, Inc.).
as §1

[7] = test system: PANC-1 pancreatic cancer cells
Protocol: The effect of Peptides 7M and 7MM on PANC-1 pancreatic cancer cells (ATCC #CRL-1469) was studied. Pierce Protein Transfection reagent (Thermo Scientific, 89850) was used to deliver peptide to the cultured cells. PANC-1 pancreatic cancer cells were transfected with 0.625-10 μM Peptide 7M or Peptide 7MM for 3.5 hrs, incubated in a complete media for a duration of two doubling times (48 hours), and assessed for viability by using a CCK-8 colorimetric assay.
The effect of peptide 7α of viability of pancreatic cancer cells was studied. PANC-1 pancreatic cancer cells (ATCC #CRL-1469) were transfected with 1.25-10 μM peptide 7α for 3.5 hrs, incubated in a complete media for a duration of two doubling times, and assessed for viability by using a CCK-8 colorimetric assay (Dojindo Molecular Technologies, Inc.).
as §1

[8] = test system: Hs 766T pancreatic cancer cells
Protocol: as §1

[9] = test system: hTERT-HPNE immortalized normal pancreatic cells
Protocol: as §1

[10] = test system: DU145 prostate cancer cells
Protocol: DU145 prostate cancer cells (ATCC #HTB-81) were transfected with 1.25-10 μM peptide 7α for 3.5 hrs, incubated in a complete media for a duration of two doubling times, and assessed for viability by using a CCK-8 colorimetric assay (Dojindo Molecular Technologies, Inc.).
DU145 prostate cancer cells (ATCC #HTB-81) were transfected with 1.25-10 μM peptide 7MM for 3.5 hrs, incubated in a complete media for a duration of two doubling times, and assessed for viability by using a CCK-8 colorimetric assay (Dojindo Molecular Technologies, Inc.).
as §1

[11] = test system: PC3 prostate cancer cells
Protocol: The effect of peptide 7α of viability of prostate cancer cells was studied. PC3 prostate cancer cells (ATCC #CRL-1435) were transfected with 1.25-10 μM peptide 7α for 3.5 hrs, incubated in a complete media for a duration of two doubling times, and assessed for viability by using a CCK-8 colorimetric assay (Dojindo Molecular Technologies, Inc.).
The effect of peptide 7MM of viability of prostate cancer cells was studied. PC3 prostate cancer cells (ATCC #CRL-1435) were transfected with 1.25-10 μM peptide 7MM for 3.5 hrs, incubated in a complete media for a duration of two doubling times, and assessed for viability by using a CCK-8 colorimetric assay (Dojindo Molecular Technologies, Inc.).
as §1

[12] = test system: HCT-116 colorectal cancer cells
Protocol: The effect of peptide 7MM of viability of colorectal cancer cells was studied. HCT-116 colorectal cancer cells (ATCC #CCL-247) were transfected with 1.25-10 μM peptide 7MM for 3.5 hrs, incubated in a complete media for a duration of two doubling times, and assessed for viability by using a CCK-8 colorimetric assay (Dojindo Molecular Technologies, Inc.).
as §1

[13] = test system: U-2 OS osteosarcoma cancer cells
Protocol: as §1

[14] = test system: HT1080 fibrosarcoma cancer cells
Protocol: as §1

[15] = transfected 1.25-10 μM for 3.5 hrs, two doubling times, CCK-8
[16] = transfected 1.25-20 μM for 3.5 hrs, two doubling times, CCK-8

Protocol for A549 lung cancer cells: as §1
Protocol for H596 lung cancer cells: as §1
Protocol for HepG2 liver cancer cells: as §2, §1

Sequence: DLVISFQLMLCVLDYFIK [7α, DLVISFQLMLCVLDYFIK]
- inhibition of CMG helicase in vitro (chromatin RPA Western blot) (CMG helicase): inhibit CMG helicase in vitro
- IC50 ([1]; 96 h): 4.6 µM
- effect on viability of BT-549 breast cancer cells [1, 15]: decreases viability
- IC50 [2]: 115 µM
- effect on viability of HMEC normal mammary epithelial cells [2, 16]: does not affect viability
- IC50 ([3]; 48 h): 7.1 µM
- effect on viability of M059J glioma cells [3, 15]: decreases viability
- IC50 [4]: 113 µM
- effect on viability of SVG p12 normal brain cells [4, 16]: does not affect viability
- IC50 (HepG2 liver cancer cells; 96 h): 3.7 µM
- effect on viability of HepG2 liver cancer cells (HepG2 liver cancer cells; transfected 1.25-5 μM for 3.5 hrs, two doubling times, CCK-8): decreases viability
- IC50 [5]: 119 µM
- effect on viability of THLE-3 normal liver cells [5, 15]: does not affect viability
- IC50 (A549 lung cancer cells): 16.5 µM
- effect on viability of A549 lung cancer cells (A549 lung cancer cells; [15]): decreases viability
- IC50 (H596 lung cancer cells): 7.5 µM
- effect on viability of H596 lung cancer cells (H596 lung cancer cells; [15]): decreases viability
- IC50 [6]: 225 µM
- effect on viability of HLF normal primary lung fibroblasts [6, 15]: does not affect viability
- IC50 ([7]; 48 h): 6.4 µM
- effect on viability of PANC-1 pancreatic cancer cells [7, 15]: decreases viability
- IC50 [8]: 7.4 µM
- effect on viability of Hs 766T pancreatic cancer cells [8, 15]: decreases viability
- IC50 [9]: 366 µM
- effect on viability of hTERT-HPNE normal pancreatic cells [9, 15]: does not affect viability
- IC50 [10]: 10.3 µM
- effect on viability of DU145 prostate cancer cells [10, 15]: decreases viability
- IC50 [11]: 9.6 µM
- effect on viability of PC3 prostate cancer cells [11, 15]: decreases viability
- IC50 [12]: 9.5 µM
- effect on viability of HCT-116 colorectal cancer cells [12, 15]: decreases viability
- IC50 [13]: 14.5 µM
- effect on viability of U-2 OS osteosarcoma cancer cells [13, 15]: decreases viability
- IC50 [14]: 4.4 µM
- effect on viability of HT1080 fibrosarcoma cancer cells [14, 15]: decreases viability
